Assay results reported in PMC8402609, “Guiding the Immune Response to a Conserved Epitope in MSP2, an Intrinsically Disordered Malaria Vaccine Candidate” (Vaccines, 2021).
Where two headings read alike, the source gives them in different places. Where a SMILES comes first, the peptide text is derived from it. Bridges are numbered along the chain shown (N, C = ends).

Assays:
[1] = molecular target: 9H4 IgG; experiment: SPR competition binding assay, mAb 9H4; set-up: species or system mouse; conditions: SPR competition assay (Biacore T200); 3D7 MSP2 immobilised on CM5 chip; eight three-fold dilutions of peptide from 10 µM with 50 nM 9H4 IgG; alanine scan of 16-residue MSP2_207–222; read-out: Kd against 9H4 IgG
Protocol: (§1) Affinities for peptide epitopes and dimer peptides to 4D11 and 9H4 IgG were measured by surface plasmon resonance (SPR) (Biacore T200, GE Healthcare, Parramatta, Australia) using a competition assay method developed previously. First, 3D7 MSP2 was immobilised on a CM5 chip. To determine binding, eight three-fold dilutions of peptide, from 10 µM stock were added with 50 nM 4D11/9H4 IgG to compete with the immobilised antigen. A standard curve was established by flowing eight two-fold dilutions of 4D11 or 9H4 IgG from a 100 nM stock solution.
In our previous work, the minimal epitope and key residues involved in 4D11 binding were defined as the 8-residue peptide 3D7-MSP2_215–222, with Lys216, Glu217 and Asn218 crucial for binding. To characterise the epitope of 9H4 and compare it with that of 4D11, the same alanine-scan peptides were used to probe 9H4 binding (Figure 1A,B). Affinities for 9H4 binding were measured by SPR, using a competition binding assay described previously.

[2] = molecular target: 4D11 IgG; experiment: SPR competition binding assay, mAb 4D11; set-up: species or system mouse; conditions: read-out: Kd against 4D11 IgG
Protocol: as §1
Following the MD simulations, each peptide was synthesised by standard Fmoc synthesis. Orthogonal protection of cysteines was used to ensure that the desired disulfide bond was formed, leaving a single free cysteine for conjugation to an appropriate carrier for immunisation. […] Consequently, disulfide bond formation and cyclisation coupling were performed in solution. To determine if the additions incorporated into the dimer sequence hindered binding to 4D11, SPR was used to measure their binding affinity to the mAb (Table 2). […] For immunisations, the commonly used carrier protein, keyhole limpet hemocyanin (KLH) was chosen. As conjugation to KLH required a free thiol, an additional cysteine residue was included in all of the peptides (Figure 2).

[3] = SPR competition assay (Biacore T200), 3D7 MSP2 immobilised on CM5 chip, eight three-fold dilutions of peptide from 10 µM with 50 nM 4D11 IgG, alanine scan of 16-residue MSP2_207–222
[4] = SPR competition binding assay, peptides for KLH conjugation (Table 2), 3D7 MSP2 on CM5 chip, 50 nM 4D11 IgG

CC(=O)N[C@@H](CO)C(=O)N[C@@H](CCC(N)=O)C(=O)N[C@@H](CCCCN)C(=O)N[C@@H](CCC(=O)O)C(=O)N[C@H]1CSSC[C@@H](C(=O)N[C@@H](C)C(=O)N[C@@H](C)C(=O)N[C@@H](C)C(N)=O)NC(=O)[C@H](CC(N)=O)NC(=O)[C@H](CCC(=O)O)NC(=O)[C@H](CCCCN)NC(=O)[C@H](CC(N)=O)NC(=O)CNC(=O)[C@H](CC(=O)O)NC(=O)[C@H]([C@@H](C)O)NC1=O [Peptide G220A] (Ac-SQKECTDGNKENCAAA-NH2; disulfide 5-13)
Kd [1]: 2.9 µM | Kd [2, 3]: 42.2 µM

CC(=O)N[C@@H](CO)C(=O)N[C@@H](CCC(N)=O)C(=O)N[C@@H](CCCCN)C(=O)N[C@@H](CCC(=O)O)C(=O)N[C@H]1CSSC[C@@H](C(=O)NCC(=O)N[C@@H](C)C(=O)N[C@@H](C)C(N)=O)NC(=O)[C@H](CC(N)=O)NC(=O)[C@H](CCC(=O)O)NC(=O)[C@H](CCCCN)NC(=O)[C@H](CC(N)=O)NC(=O)CNC(=O)[C@H](CC(=O)O)NC(=O)[C@H](C)NC1=O [Peptide T212A] (Ac-SQKECADGNKENCGAA-NH2; disulfide 5-13)
Kd [1]: 4.8 µM | Kd [2, 3]: 0.5 µM

CC(=O)N[C@@H](CO)C(=O)N[C@@H](CCC(N)=O)C(=O)N[C@@H](CCCCN)C(=O)N[C@@H](CCC(=O)O)C(=O)N[C@H]1CSSC[C@@H](C(=O)NCC(=O)N[C@@H](C)C(=O)N[C@@H](C)C(N)=O)NC(=O)[C@H](CC(N)=O)NC(=O)[C@H](CCC(=O)O)NC(=O)[C@H](CCCCN)NC(=O)[C@H](CC(N)=O)NC(=O)CNC(=O)[C@H](C)NC(=O)[C@H]([C@@H](C)O)NC1=O [Peptide D213A] (Ac-SQKECTAGNKENCGAA-NH2; disulfide 5-13)
Kd [2, 3]: 0.5 µM

C[C@@H]1NC(=O)CNC(=O)[C@@H]2CSSC[C@H](NC(=O)[C@H](CC(N)=O)NC(=O)[C@H](CCC(=O)O)NC(=O)[C@H](CCCCN)NC(=O)[C@H](CC(N)=O)NC(=O)CNC(=O)[C@H](CS)NC(=O)CNC(=O)[C@H](C)NC1=O)C(=O)NCC(=O)N[C@@H](C)C(=O)N[C@@H](C)C(=O)NCC(=O)NCC(=O)NCC(=O)N[C@@H](CC(N)=O)C(=O)N[C@@H](CCCCN)C(=O)N[C@@H](CCC(=O)O)C(=O)N[C@@H](CC(N)=O)C(=O)N2 [Peptide C3] (cyclo(AAGCGNKENCGAAGGGNKENCG); disulfide 10-21)
Kd [2, 4]: 1.04 µM

CC(=O)N[C@@H](CC(N)=O)C(=O)N[C@@H](CCCCN)C(=O)N[C@@H](CCC(=O)O)C(=O)N[C@@H](CC(N)=O)C(=O)N[C@H]1CSSC[C@@H](C(=O)NCC(=O)N[C@@H](C)C(=O)N[C@@H](C)C(=O)N[C@@H](CS)C(N)=O)NC(=O)[C@H](CC(N)=O)NC(=O)[C@H](CCC(=O)O)NC(=O)[C@H](CCCCN)NC(=O)[C@H](CC(N)=O)NC(=O)CNC(=O)CNC(=O)[C@H](C)NC(=O)[C@H](C)NC(=O)CNC1=O [Peptide L2] (Ac-NKENCGAAGGNKENCGAAC-NH2; disulfide 5-15)
Kd [2, 4]: 0.67 µM

C[C@@H]1NC(=O)CNC(=O)[C@@H]2CSSC[C@H](NC(=O)[C@H](CC(N)=O)NC(=O)[C@H](CCC(=O)O)NC(=O)[C@H](CCCCN)NC(=O)[C@H](CC(N)=O)NC(=O)CNC(=O)CNC(=O)[C@H](C)NC1=O)C(=O)NCC(=O)N[C@@H](C)C(=O)N[C@@H](C)C(=O)N[C@@H](CS)C(=O)NCC(=O)N[C@@H](CC(N)=O)C(=O)N[C@@H](CCCCN)C(=O)N[C@@H](CCC(=O)O)C(=O)N[C@@H](CC(N)=O)C(=O)N2 [Peptide C2] (cyclo(AACGNKENCGAAGGNKENCG); disulfide 9-19)
Kd [2, 4]: 0.68 µM

CC(=O)N[C@@H](CC(N)=O)C(=O)N[C@@H](CCCCN)C(=O)N[C@@H](CCC(=O)O)C(=O)N[C@@H](CC(N)=O)C(=O)N[C@H]1CSSC[C@@H](C(=O)NCC(=O)N[C@@H](C)C(=O)N[C@@H](C)C(=O)N[C@@H](CS)C(N)=O)NC(=O)[C@H](CC(N)=O)NC(=O)[C@H](CCC(=O)O)NC(=O)[C@H](CCCCN)NC(=O)[C@H](CC(N)=O)NC(=O)CNC(=O)CNC(=O)CNC(=O)[C@H](C)NC(=O)[C@H](C)NC(=O)CNC1=O [Peptide L3] (Ac-NKENCGAAGGGNKENCGAAC-NH2; disulfide 5-16)
Kd [2, 4]: 0.58 µM
